The species named for one data set is Homo sapiens. As to the kind of experiment: Ratio of Ki for human adenosine A1 receptor to Ki for human adenosine A2A receptor.
The target of another data set is Adenosine receptor A2a (Homo sapiens, UniProt P29274). As to the kind of experiment: Antagonist activity against human adenosine A2A receptor. The format is functional.
Data set [1] in a line: Solubility of the compound at pH 7.4. It is filed as physicochemical. To be noted: buffer.
Data set [2] is described as follows: Drug uptake in rat brain at 3 mg/kg measured after 6 hrs. The conditions noted are these: read-out: Drug uptake. Details: dose 3 mg/kg. It is filed as ADME, organism-based.
Data set [3] is described as follows: AUC in rat at 3 mg/kg by LC-MS analysis. It is filed as ADME, organism-based. Further details: dose 3 mg/kg. To be noted: plasma.
Data set [4] has as its system Rattus norvegicus. Nature of the data set: Inhibition of haloperidol -induced catalepsy in rat at 10 mg/kg, po measured after 1 hr. The format is functional.
For data set [5], the system named is Rattus norvegicus. Nature of the data set: Intrinsic clearance in rat at 3 mg/kg. The format is ADME, organism-based. Further details: dose 3 mg/kg. To be noted: in vivo.
The subject of data set [6] is Rattus norvegicus. As to the kind of experiment: Inhibition of haloperidol -induced catalepsy in rat at 10 mg/kg, po measured after 4 hrs. It is filed as functional.

A value given as a limit tells only on which side of the number the result lay.

In general, Ki refers to a measure of affinity in units of concentration, obtained from inhibition or displacement. For orientation: solubility means how much of the substance goes into solution per volume. The term AUC denotes the area under the concentration-time curve, a measure of exposure. A lower AUC goes with less exposure. Usually inhibition in vivo stands for the relative decrease from the control value, in per cent. Low values mean a response near the control, high ones a response far below the control.

Sequence of Adenosine receptor A2a (P29274 whole entry): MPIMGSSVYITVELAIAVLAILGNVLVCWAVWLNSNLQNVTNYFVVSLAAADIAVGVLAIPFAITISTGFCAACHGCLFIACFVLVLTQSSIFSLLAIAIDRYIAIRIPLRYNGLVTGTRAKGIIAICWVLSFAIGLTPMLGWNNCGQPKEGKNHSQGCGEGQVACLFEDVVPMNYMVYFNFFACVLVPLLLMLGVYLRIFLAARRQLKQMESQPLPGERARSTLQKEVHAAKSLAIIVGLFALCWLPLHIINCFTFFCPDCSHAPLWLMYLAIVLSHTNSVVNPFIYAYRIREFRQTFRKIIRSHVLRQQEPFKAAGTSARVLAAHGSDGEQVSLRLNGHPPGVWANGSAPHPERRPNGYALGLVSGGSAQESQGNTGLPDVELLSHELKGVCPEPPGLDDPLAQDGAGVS

As for `Nc1nc2c(cnn2CCN2CCN(c3ccc(F)cc3F)CC2)c2nn(Cc3cccc(Cl)c3)c(=O)n12`, the Ratio Ki in the data set listed under Homo sapiens stood at 60. On Adenosine receptor A2a, this compound came in with an inhibition constant (Ki) of 23.4 nM.
For the compound `Nc1nc(-c2cccnc2)cc2nn(Cc3ccccc3)c(=O)n12`, the Ratio Ki in the data set filed under Homo sapiens worked out at 2. Moreover, the solubility in data set [1] (read-out: solubility) came out at 100 µM. For the same compound, the Ki at Adenosine receptor A2a turned out to be 791 nM.
On to `Nc1nc2c(cnn2CCN2CCN(c3cnccn3)CC2)c2nn(Cc3ccccc3)c(=O)n12`, for which the Ratio Ki in the data set listed under Homo sapiens was determined as 110. Besides, the solubility in data set [1] (read-out: solubility) came out at 50 µM. At Adenosine receptor A2a, this compound had a Ki of 12.7 nM.
On to `CN(C)CCn1ncc2c1nc(N)n1c(=O)n(Cc3ccccc3)nc21`, for which, in data set [1] (read-out: solubility), the solubility is above 250 µM. This compound also yielded a Ki on Adenosine receptor A2a above 1500 nM.
Regarding `Nc1nc2c(cnn2CCN2CCC3(CC2)OCCO3)c2nn(Cc3cccc(Cl)c3)c(=O)n12`, the Ratio Ki in the data set filed under Homo sapiens is 127. For the same compound, the Ki at Adenosine receptor A2a was determined as 11 nM.
Take `Nc1nc2c(cnn2CCN2CCC(N3CCOCC3)CC2)c2nn(Cc3cccc(Cl)c3)c(=O)n12`: the Ratio Ki in the data set listed under Homo sapiens stood at 224. On Adenosine receptor A2a, this compound gave a Ki of 6.7 nM.
In the case of `Nc1nc2c(cnn2CCN2CCC3(CC2)OCCO3)c2nn(Cc3ccccc3)c(=O)n12`, the Ratio Ki in the data set listed under Homo sapiens worked out at 162. Besides, in data set [1] (read-out: solubility), the solubility came out at 75 µM. Moreover, at Adenosine receptor A2a, affinity was put at a Ki of 8.7 nM.
Regarding `CN(C)CCn1ncc2c1nc(N)n1c(=O)n(Cc3cccc(Cl)c3)nc21`, the concentration at 6 h in data set [2] was 39 ng/g. The Ratio Ki in the data set filed under Homo sapiens worked out at 269. Moreover, in data set [3], the AUC came out at 0.398 µM·h. The solubility in data set [1] (read-out: solubility) stood at 18 µM. Besides, the results for the inhibition in vivo at 10 mg/kg in the data set on Rattus norvegicus [4] and in the data set on Rattus norvegicus [6] were 13% and 20%, respectively. Further, in the data set on Rattus norvegicus [5], the CL came to 37.3 mL/min/kg. The compound further yielded a Ki on Adenosine receptor A2a of 5.2 nM.
In the case of `Nc1nc2c(cnn2CCN2CCOCC2)c2nn(CC3CC3)c(=O)n12`, the Ratio Ki in the data set listed under Homo sapiens came out at 4. Moreover, the solubility in data set [1] (read-out: solubility) is above 250 µM. Also, affinity on Adenosine receptor A2a was put at a Ki of 381 nM.
Turning to `C=Cn1ncc2c1nc(N)n1c(=O)n(Cc3cccc(Cl)c3)nc21`, the Ratio Ki in the data set listed under Homo sapiens is 356. Further, the solubility in data set [1] (read-out: solubility) stood at 12 µM. The inhibition in vivo at 10 mg/kg turned out to be 13% in the data set on Rattus norvegicus [4] and 15% with Rattus norvegicus [6]. The same compound gave a CL in the data set on Rattus norvegicus [5] of 27.7 mL/min/kg. Also, on Adenosine receptor A2a, affinity was put at a Ki of 0.4 nM.
`CC(C)(C)OC(=O)N1CCN(CCn2ncc3c2nc(N)n2c(=O)n(Cc4cccc(Cl)c4)nc32)CC1`: the Ratio Ki in the data set listed under Homo sapiens is 2. For the same compound, the solubility in data set [1] (read-out: solubility) was 25 µM. At Adenosine receptor A2a, the affinity corresponds to a Ki of 556 nM.
For `C=Cn1ncc2c1nc(N)n1c(=O)n(CC3CC3)nc21`, the Ratio Ki in the data set listed under Homo sapiens came to 55. For the same compound, the solubility in data set [1] (read-out: solubility) is 175 µM. This compound came in with a Ki on Adenosine receptor A2a of 27.4 nM.
In the case of `Nc1nc(-c2cccc(CO)c2)cc2nn(Cc3ccccc3)c(=O)n12`, the Ratio Ki in the data set listed under Homo sapiens came to 1. In addition, the solubility in data set [1] (read-out: solubility) is 100 µM. This compound showed a Ki on Adenosine receptor A2a of 1700 nM.
For the compound `Nc1nc(-c2ccccc2)cc2nc(-c3ccco3)nn12`, the Ratio Ki in the data set listed under Homo sapiens was 3. Also, at Adenosine receptor A2a, the Ki is 7 nM.
On to `CS(=O)(=O)N1CCN(CCn2ncc3c2nc(N)n2c(=O)n(Cc4ccccc4)nc32)CC1`, for which the Ratio Ki in the data set filed under Homo sapiens was 157. In addition, the solubility in data set [1] (read-out: solubility) is 75 µM. At Adenosine receptor A2a, this compound came in with a Ki of 8.9 nM.
Take `Nc1nc2c(c3nn(Cc4ccccc4)c(=O)n13)CCc1ccccc1-2`: the concentration at 6 h in data set [2] came out at 10 ng/g. For the same compound, the Ratio Ki in the data set filed under Homo sapiens worked out at 43. The inhibition in vivo at 10 mg/kg was 0% with Rattus norvegicus [4] and 18% in the data set with Rattus norvegicus [6]. In the data set with Rattus norvegicus [5], the CL is 14.7 mL/min/kg. Moreover, the Ki on Adenosine receptor A2a amounted to 0.5 nM.
Take `CC(C)(C)OC(=O)N1CCN(CCn2ncc3c2nc(N)n2c(=O)n(Cc4ccccc4)nc32)CC1`: in data set [1] (read-out: solubility), the solubility was found to be 100 µM. Also, the Ki at Adenosine receptor A2a is above 1300 nM.
Taken in the same sequence, the figures for `COCCOc1ccc(N2CCN(CCn3ncc4c3nc(N)n3c(=O)n(Cc5ccccc5)nc43)CC2)c(F)c1` were 12 µM and above 1300 nM.
On to `COc1ccc(-c2cc3nn(Cc4ccccc4)c(=O)n3c(N)n2)cc1`, for which, in the data set listed under Homo sapiens, the Ratio Ki stood at 2. Also, the solubility in data set [1] (read-out: solubility) was found to be 25 µM. At Adenosine receptor A2a, this compound gave a Ki of 636 nM.
For the compound `Nc1nc(-c2ccccc2)cc2nn(Cc3ccccc3)c(=O)n12`, the Ratio Ki in the data set listed under Homo sapiens is 26. This compound also displayed a Ki on Adenosine receptor A2a of 1 nM.
For the compound `C=Cn1ncc2c1nc(N)n1c(=O)n(Cc3ccccc3)nc21`, the concentration at 6 h in data set [2] came to 10 ng/g. Besides, in the data set filed under Homo sapiens, the Ratio Ki was determined as 1120. In data set [3], this compound had an AUC of 0.248 µM·h. In addition, the solubility in data set [1] (read-out: solubility) is 37 µM. In addition, the inhibition in vivo at 10 mg/kg in the data set on Rattus norvegicus [4] is 0%; with Rattus norvegicus [6] it was 8%. Further, the CL with Rattus norvegicus [5] was 24.4 mL/min/kg. The compound also registered a Ki at Adenosine receptor A2a of 0.3 nM.
As to `Nc1nc2c(cnn2CCN2CCC(N3CCOCC3)CC2)c2nn(Cc3ccccc3)c(=O)n12`, the Ratio Ki in the data set listed under Homo sapiens came out at 53. On Adenosine receptor A2a, the Ki is 28.4 nM.
As for `COCCOc1ccc(N2CCN(CCn3ncc4c3nc(N)n3nc(-c5ccco5)nc43)CC2)cc1` [PRELADENANT], in data set [1], the solubility is below 0.01 µg/mL. For the same compound, the values for the inhibition in vivo at 10 mg/kg in the data set with Rattus norvegicus [4] and with Rattus norvegicus [6] were 75% and 80%, respectively.
With `COCCOc1ccc(N2CCN(CCn3ncc4c3nc(N)n3c(=O)n(Cc5cccc(Cl)c5)nc43)CC2)c(F)c1`, in the data set filed under Homo sapiens, the Ratio Ki turned out to be 90. The solubility in data set [1] (read-out: solubility) came to 12 µM. Further, the Ki at Adenosine receptor A2a is 15.6 nM.
On to `Nc1nc2c(cnn2CCN2CCN(c3cnccn3)CC2)c2nn(Cc3cccc(Cl)c3)c(=O)n12`, for which, in the data set filed under Homo sapiens, the Ratio Ki turned out to be 109. The solubility in data set [1] (read-out: solubility) turned out to be 25 µM. This compound also had a Ki on Adenosine receptor A2a of 12.9 nM.
`CN(C)CCn1ncc2c1nc(N)n1c(=O)n(CC3CC3)nc21`: the solubility in data set [1] (read-out: solubility) is above 250 µM. The Ki at Adenosine receptor A2a was above 1500 nM.
In the case of `Nc1nc2c(cnn2CCN2CCOCC2)c2nn(Cc3cccc(Cl)c3)c(=O)n12`, the Ratio Ki in the data set filed under Homo sapiens was determined as 99. In data set [1] (read-out: solubility), the solubility came to 25 µM. For the same compound, the Ki at Adenosine receptor A2a was 14.2 nM.
As to `CS(=O)(=O)N1CCN(CCn2ncc3c2nc(N)n2c(=O)n(Cc4cccc(Cl)c4)nc32)CC1`, the Ratio Ki in the data set filed under Homo sapiens came to 133. The solubility in data set [1] (read-out: solubility) turned out to be 12 µM. The same compound gave a Ki at Adenosine receptor A2a of 10.5 nM.
In the case of `Nc1nc2c(cnn2CCN2CCOCC2)c2nn(Cc3ccccc3)c(=O)n12`, in the data set listed under Homo sapiens, the Ratio Ki came out at 156. For the same compound, the solubility in data set [1] (read-out: solubility) was 175 µM. On Adenosine receptor A2a, this compound came in with a Ki of 9 nM.
The compound `Nc1nc2c(cnn2CCN2CCN(c3ccc(F)cc3F)CC2)c2nn(Cc3ccccc3)c(=O)n12` came in with a Ki at Adenosine receptor A2a above 1300 nM.

The values above are taken from ChEMBL document CHEMBL1759931, “Potent and selective adenosine A(2A) receptor antagonists: [1,2,4]-triazolo[4,3-c]pyrimidin-3-ones” (Bioorg Med Chem Lett, 2011).
